Columns and labels:
[1] = test system: A549 Cell line (Lung Cancer Cell line); experiment: Cell proliferation assay (MTT), in-vitro anticancer activity against A549 cell line; assay type: cell-based; details: Homo sapiens, 72 h; for viability at 0.01 µM: A549, 0.01 μM; for viability at 0.1 µM: A549, 0.1 μM; for viability at 2.5 µM: A549, 2.5 μM; for viability at 5 µM: A549, 5 μM; for viability at 10 µM: A549, 10 μM
Description: (§1) Each cell line was plated in 96-well microtiter plates (10,000 cells per well), and serial dilutions of indicated compounds were added. At the end of the incubation period (72 h at 37° C.), cell viability was determined by a tetrazolium dye, MTT (3-(4,5-dimethylthiazol-2-yl)-2,5-diphenyl tetrazolium bromide) (Promega, USA). The formazan crystals were dissolved in DMSO, and the absorbance at 600 nm was recorded using an ELISA plate reader. IC50 values were calculated using nonlinear regression and defined as the concentration needed for a 50% reduction in absorbance of treated versus untreated control cells.
In-Vitro Anticancer Activity Against A549 Cell Line (Lung Cancer Cell Line) (Adenocarcinomic Human Alveolar Basal Epithelial Cells)

[2] = test system: U87MG Cell line (glioblastoma cell line); experiment: Cell proliferation assay (MTT), in-vitro anticancer activity against U87MG cell line; assay type: cell-based; details: Homo sapiens, U-87 MG, 72 h
Description: as §1
In-Vitro Anticancer Activity Against U87MG Cell Line (Glioblastoma Cell Line)

[3] = Log P (Table 4); assay type: physicochemical; details: method not stated

SMILES	logP [3]	melting point [°C]	viability at 0.01 µM [1] [%]	viability at 0.1 µM [1] [%]	viability at 2.5 µM [1] [%]	viability at 5 µM [1] [%]	viability at 10 µM [1] [%]	viability at 0.01 µM [2] [%]	viability at 0.1 µM [2] [%]	viability at 2.5 µM [2] [%]	viability at 5 µM [2] [%]	viability at 10 µM [2] [%]
Cc1cccc(C)c1Nc1nc(N)c(-c2cc(=O)c3ccc(O)cc3o2)s1 [Compound S1-M4, 2-(2-(2,6-dimethylphenylamino)-4-aminothiazol-5-yl)-7-hydroxy-4H-chromen-4-one]	3.42	224 to 226	88.6	85.8	77.6	68.6	61.6	80.6	71.8	65.6	58.6	50.6
Nc1nc(Nc2ccccc2)sc1-c1cc(=O)c2ccc(O)cc2o1 [Compound S1-M8, 2-(4-amino-2-(phenylamino)thiazol-5-yl)-7-hydroxy-4H-chromen-4-one]	3.32	218 to 220	93.3	87.1	75	64	54	88.3	76.1	68	59	51.4
Nc1nc(Nc2c(Cl)cccc2Cl)sc1-c1cc(=O)c2ccc(O)cc2o1 [Compound S1-M5, 2-(2-(2,6-dichlorophenylamino)-4-aminothiazol-5-yl)-7-hydroxy-4H-chromen-4-one]	3.02	260 to 262	98.8	91.6	83.9	71.9	65.9	84.8	77.6	69.9	60.9	52.9
COc1ccc(Nc2nc(N)c(-c3cc(=O)c4ccc(O)cc4o3)s2)cc1 [Compound S1-M6, 2-(2-(4-methoxyphenylamino)-4-aminothiazol-5-yl)-7-hydroxy-4H-chromen-4-one]	1.92	220 to 222	53.1	45.1	36.7	27.9	19.4	48.7	35.2	25.8	19.9	12.9
COc1ccc2oc(-c3sc(Nc4ccc(C)cc4)nc3N)cc(=O)c2c1 [Compound S1-M10, 2-(2-(p-tolylamino)-4-aminothiazol-5-yl)-6-methoxy-4H-chromen-4-one]	3.99	280 to 282	96.9	93	86.4	76.4	66.4	87.9	78	69.4	59.4	50.4
COc1cc2ncnc(Nc3ccc(F)c(Cl)c3)c2cc1OCCCN1CCOCC1 [Gefitinib, gefitinib, reference compound]			55.2	43.7	35.3	29.3	20.3	55.2	43.7	35.3	29.3	20.3
Cc1ccc(Nc2nc(N)c(-c3cc(=O)c4ccc(O)cc4o3)s2)cc1 [Compound S1-M2, 2-(2-(p-tolylamino)-4-aminothiazol-5-yl)-7-hydroxy-4H-chromen-4-one]	1.9	244 to 246	56.1	41.1	31.1	24.1	20.9	41.1	34.4	28.1	19.6	14.9

More lines, main results first:

logP [3]	melting point [°C]	SMILES	viability at 0.01 µM [1] [%]	viability at 0.1 µM [1] [%]	viability at 2.5 µM [1] [%]	viability at 5 µM [1] [%]	viability at 10 µM [1] [%]	viability at 0.01 µM [2] [%]	viability at 0.1 µM [2] [%]	viability at 2.5 µM [2] [%]	viability at 5 µM [2] [%]	viability at 10 µM [2] [%]
2.5	210 to 212	COc1ccc2c(=O)cc(-c3sc(Nc4ccccc4OC)nc3N)oc2c1 [Compound S1-M15, 2-(2-(2-methoxyphenylamino)-4-aminothiazol-5-yl)-7-methoxy-4H-chromen-4-one]	96.1	92.7	85.3	75.3	68.3	89.1	77.9	68.7	60.7	50.3
2.6	220 to 222	COc1ccc(Nc2nc(N)c(-c3cc(=O)c4ccc(OC)cc4o3)s2)cc1 [Compound S1-M14, 2-(2-(4-methoxyphenylamino)-4-aminothiazol-5-yl)-7-methoxy-4H-chromen-4-one]	98	89.1	81.1	71.1	63.1	91	80.1	70.6	61.3	51.1
2.11	288 to 290	COc1ccc2oc(-c3sc(Nc4ccccc4C)nc3N)cc(=O)c2c1 [Compound S1-M11, 2-(2-(o-tolylamino)-4-aminothiazol-5-yl)-6-methoxy-4H-chromen-4-one]	99.8	93.7	84.8	72.8	62.8	83.8	75.7	67.2	58.8	49.8
2.11	210 to 212	COc1ccccc1Nc1nc(N)c(-c2cc(=O)c3ccc(O)cc3o2)s1 [Compound S1-M7, 2-(2-(2-methoxyphenylamino)-4-aminothiazol-5-yl)-7-hydroxy-4H-chromen-4-one]	96.1	94.9	84.8	74.8	66.8	85.1	75.9	65.8	57.8	45.8
2.01	268 to 270	Cc1ccccc1Nc1nc(N)c(-c2cc(=O)c3ccc(O)cc3o2)s1 [Compound S1-M3, 2-(2-(o-tolylamino)-4-aminothiazol-5-yl)-7-hydroxy-4H-chromen-4-one]	97.6	91.4	85.8	74.8	55.8	82.6	74.4	68.8	60.8	54.8
2.7	228 to 230	COc1ccc2oc(-c3sc(Nc4c(C)cccc4C)nc3N)cc(=O)c2c1 [Compound S1-M12, 2-(2-(2,6-dimethylphenylamino)-4-aminothiazol-5-yl)-6-methoxy-4H-chromen-4-one]	92.1	95.4	86.9	78.9	66.9	85.1	73.4	65.9	56.9	45.8
2.18	260 to 262	COc1ccc2oc(-c3sc(Nc4c(Cl)cccc4Cl)nc3N)cc(=O)c2c1 [Compound S1-M13, 2-(2-(2,6-dichlorophenylamino)-4-aminothiazol-5-yl)-6-methoxy-4H-chromen-4-one]	95.4	90.9	82.6	72.6	62.6	90.4	81.9	72.4	64.6	55.9
1.9	200 to 202	Cc1ccc(Nc2nc(N)c(-c3cc(=O)c4ccccc4o3)s2)cc1 [Compound S1-M9, 2-(2-(p-tolylamino)-4-aminothiazol-5-yl)-4H-chromen-4-one]	100	91.8	87.3	77.3	67.3	87	78.8	70.3	62.3	55.6
3.2	232 to 234	Nc1nc(Nc2ccccc2)sc1-c1cc(=O)c2ccccc2o1 [Compound S1-M1, 2-(4-amino-2-(phenylamino)thiazol-5-yl)-4H-chromen-4-one]	100	90.5	82.5	75.5	60.5	88	79.5	70.5	62.5	51.5

Source: patent US10221165B2, “Flavone based EGFR inhibitors and process for preparation thereof” (Council of Scientific and Industrial Research, priority 2015, dated 2019)
